# Entries after “also recorded” stand apart in the source; their conditions may differ.
# Legend:
# [1] = test system: ovariectomized animal model; test: Osteoporosis alleviation in ovariectomized animal model, Micro CT of femur; format: in vivo, SD female mice
# Description: To determine the effect of alleviating osteoporosis in an ovariectomized animal model according to administration of CHP, a zinc salt, or a mixture thereof, 20-week-old SD female mice (SLC/Central Experimental Animal Co. Ltd., Seoul, Korea) were purchased and raised under certain conditions (temperature: 22±2° C., relative humidity: 55±10%, light/dark cycle: 12 hours). 7 mice/group were allowed to freely drink water and eat food in a cage, subjected to an adaptation period of 1 week before the experiment, and used in the experiment.
# After 6 weeks of the administration of CHP, a zinc salt, or a mixture thereof, the effect of alleviating osteoporosis in an ovariectomized animal model was analyzed using Micro CT. The bone mineral density of ovariectomized animals was measured by bone CT scanning of the 3 mm range at the front side of a 2 mm femoral growth plate using micro-CT (QuantumFX, Perkin Elmer, Massachusetts, USA). In addition, a bone volume fraction (BV/TV, %) was measured. The measurement results of the bone mineral density of the femur are illustrated in FIG. 1, and the bone volume fraction is illustrated in FIG. 2.
# MC3T3-E1 cells = test: Alkaline phosphatase (ALP) activity / osteogenic differentiation of MC3T3-E1 osteoblasts; format: cell-based
# Description: MC3T3-E1 cells were incubated in MEMα, an ascorbic acid-free medium containing 10% FBS and 1% penicillin/streptomycin, in a 5% CO2 incubator at 37° C. To induce osteogenic differentiation, 10 mM β-glycerophosphate and […] of ascorbic acid was further added to the basal medium composition.
# 500 μl of 1×10^5 MC3T3-E1 cells were seeded into a 24-well plate and cultured for 24 hours until they reached 100% confluency. […] At this time, in the undifferentiated group, which is a negative control for differentiation, a basal medium was used instead of the differentiation medium. In the positive control treated with hPTH1-34, the medium was replaced with a differentiation medium 6 hours after the treatment. While the medium was replaced every 48 hours, each concentration of CHP and hPTH1-34 was treated for a total of 14 days.
# On day 14 of differentiation, the medium was removed, followed by washing once with PBS and fixing in 4% paraformaldehyde (PFA) at room temperature for 5 minutes. 500 μl of a 1-STEP™ NBCT/BCIP solution was added to allow a reaction to occur at room temperature for 1 hour. The reaction product was washed with distilled water, and then dried at room temperature, and the degree of coloring of the cells was observed using a microscope. Subsequently, DMSO was added to each well, followed by shaking, and then absorbance at 525 nm was measured.
compound,measurement,setting,value
"O=C1N[C@@H](Cc2cnc[nH]2)C(=O)N2CCC[C@@H]12 [CHP, cyclo-hispro]",bone mineral density of the femur,"[1]; 1 mg/L of CHP in drinking water, 6 weeks, micro-CT, compared to the ovariectomized group (FIG. 1)",significant increase
same,bone volume fraction (BV/TV),"[1]; 1 mg/L of CHP in drinking water, 6 weeks, micro-CT, compared with positive control risedronate (FIG. 2)",restored to a level similar to that of the positive control
same,effect on bone mineral density and bone volume fraction relative to zinc salt and zinc salt + CHP mixture groups,[1]; CHP alone vs zinc salt-administered group and combined administration group,significantly stronger
same,bone mineral density of a femur,"[1]; CHP alone, ovariectomized animal model, dose not stated (FIG. 1)",significantly increased
same,bone volume fraction of a femur,"[1]; CHP alone, ovariectomized animal model, dose not stated (FIG. 2)",significantly increased
same,ALP activity (absorbance at 525 nm),"MC3T3-E1 cells; 2 mM CHP, day 14, compared with positive control hPTH1-34 10 nM (FIG. 4)",level similar to that of the positive control; also recorded: same or similar to that of a positive control
same,"osteogenic differentiation (degree of coloring, ALP staining)","MC3T3-E1 cells; 0.5, 1, 2 mM CHP, day 14 of differentiation, compared to negative control (FIG. 3)",remarkably increased degree of coloring; also recorded: osteogenic differentiation and bone modeling were promoted
